Measurements published in ChEMBL document CHEMBL1133627, “4-Anilino-6,7-dialkoxyquinoline-3-carbonitrile inhibitors of epidermal growth factor receptor kinase and their bioisosteric relationship to the 4-anilino-6,7-dialkoxyquinazoline inhibitors” (J Med Chem, 2000).

What was measured:
A-431 = assay: Concentration needed to inhibit 50% growth of the human A431 (epidermoid carcinoma) cell lines; type: functional, cell-based
SW-620 = assay: Concentration needed to inhibit 50% growth of human SW620 (colon carcinoma) cell lines; type: functional, cell-based
[1] = molecular target: Epidermal growth factor receptor and ErbB2 (HER1 and HER2) (Homo sapiens, UniProt P04626+P00533); assay: Concentration needed to inhibit the autophosphorylation of the cytoplasmic domain of Epidermal growth factor receptor using DELFIA/time-resolved fluorimetry.; type: protein assay
SK-BR-3 = assay: Concentration needed to inhibit 50% growth of human SKBr3 (breast carcinoma) cell lines; type: functional, cell-based

| Structure (SMILES) | IC50 (A-431) | IC50 (SW-620) | IC50 [1] | IC50 (SK-BR-3) |
| --- | --- | --- | --- | --- |
| CCOc1cc2ncc(C#N)c(Nc3cccc(Br)c3)c2cc1OCC | 0.11 µM | 0.16 µM | 0.42 µM | 0.09 µM |
| COc1cc2c(C#N)cnc(Nc3cccc(Cl)c3)c2cc1OC | 26.1 µM | 64.5 µM | 88.29 µM | 27.7 µM |
| COc1cc2ncc(C=O)c(Nc3cccc(Br)c3)c2cc1OC | 1.95 µM | 5.24 µM | 3.37 µM | 2.97 µM |
| COc1cc2ncc(C#N)c(Nc3ccc(C)c(Cl)c3)c2cc1OC | 0.93 µM | 25 µM | 1.48 µM | 0.94 µM |
| COc1cc2ncc(C#N)c(Nc3cccc(Cl)c3)c2cc1OC | 0.59 µM | 7.06 µM | 0.18 µM | 1.76 µM |
| COc1cc2ncc(C#N)c(Nc3ccccc3Br)c2cc1OC | 21 µM | 17 µM | 4.18 µM | 0.8 µM |
| COc1cc2ncc(C#N)c(Nc3cccc(C(C)C)c3)c2cc1OC | 4.35 µM | 3.8 µM | 62.32 µM | 6.74 µM |
| COc1cc2ncc(C#N)c(Nc3cccc(N)c3)c2cc1OC | 6.62 µM | 14.3 µM | 0.82 µM | 2.45 µM |
| COc1cc2ncc(C#N)c(Nc3ccc(Br)c(C)c3)c2cc1OC | 0.73 µM | 3.09 µM | 0.62 µM | 1.38 µM |
| CCOc1cc2c(Nc3cccc(Br)c3)c(C#N)cnc2cc1OC | 0.57 µM | 4.24 µM | 21.19 µM | 0.64 µM |
| COc1cc2ncc(C#N)c(Nc3cccc(O)c3)c2cc1OC | 1.52 µM | 7.8 µM | 6.36 µM | 0.95 µM |
| COc1cc2ncc(C#N)c(Nc3ccc(O)c(Cl)c3)c2cc1OC | 3.01 µM | 2.75 µM | 9.04 µM | 1.29 µM |
| COc1cc2ncc(C#N)c(Nc3cccc(C#N)c3)c2cc1OC | 3.51 µM | 43.3 µM | 14.18 µM | 26 µM |
| COc1cc2ncc(C#N)c(Nc3cccc(Br)c3)c2cc1OC | 0.78 µM | 3.72 µM | – | 0.48 µM |
| COCOc1cc2ncc(C#N)c(Nc3cccc(Br)c3)c2cc1OCOC | 14.5 µM | 9.79 µM | 6.75 µM | 14.2 µM |
| COc1cc2ncc(C#N)c(Nc3ccc(C)c(Br)c3)c2cc1OC | 0.75 µM | 2.89 µM | 1.79 µM | 0.55 µM |

| Structure (SMILES) | IC50 (A-431) | IC50 (SW-620) | IC50 [1] | IC50 (SK-BR-3) |
| --- | --- | --- | --- | --- |
| N#Cc1cnc2cc3c(cc2c1Nc1cccc(Br)c1)OCCO3 | 0.42 µM | 0.43 µM | > 104.7 µM | 0.27 µM |
| CCOc1cc2ncc(C#N)c(Nc3cccc(Br)c3)c2cc1OC | 0.14 µM | 0.06 µM | 33.02 µM | 0.06 µM |
| COc1cc2ncc(C#N)c(Nc3ccc(Cl)cc3F)c2cc1OC | 0.818 µM | 5.34 µM | 13.85 µM | 0.54 µM |
| COc1cc2ncc(C#N)c(Nc3cccc(Br)c3C)c2cc1OC | 3.64 µM | 11.8 µM | 0.84 µM | 0.39 µM |
| COc1cc2ncc(C#N)c(Nc3cccc(SC)c3)c2cc1OC.Cl | 1.45 µM | 4.98 µM | 0.76 µM | 1.54 µM |
| COc1cc2ncc(C#N)c(Nc3ccc(Br)cc3F)c2cc1OC.Cl | 0.89 µM | 19.2 µM | > 91.2 µM | 1.69 µM |
| COc1cc2ncc(C#N)c(Nc3cccc(C(N)=O)c3)c2cc1OC | 5.91 µM | 6.29 µM | 7.69 µM | 8.44 µM |
| CCOc1cc2ncc(C#N)c(Nc3ccc(F)c(Cl)c3)c2cc1OCC | 0.27 µM | 0.49 µM | 0.98 µM | 0.49 µM |
| COc1cc2ncc(C#N)c(Nc3cccc(NC(C)=O)c3)c2cc1OC | 2.62 µM | 2.74 µM | 69.4 µM | 1.55 µM |
| N#Cc1cnc2cc3c(cc2c1Nc1cccc(Br)c1)OCCCO3 | 2.08 µM | 2.9 µM | 5.15 µM | 5.07 µM |
| COc1cc2ncc(C#N)c(Nc3cc(Cl)c(O)c(Cl)c3)c2cc1OC | 3.14 µM | 3.43 µM | 3.15 µM | 2.02 µM |
| COc1cc2ncc(C#N)c(Nc3ccc(F)cc3)c2cc1OC | 1.43 µM | 2.87 µM | 47.94 µM | 0.74 µM |
| COc1cc2ncc(CO)c(Nc3cccc(Br)c3)c2cc1OC | 7.91 µM | 23.2 µM | > 102.2 µM | 15.4 µM |
| CCOC(=O)c1cnc2cc(OC)c(OC)cc2c1Nc1cccc(Br)c1 | 3.01 µM | 6.93 µM | > 81.3 µM | 6.21 µM |
| COc1cc2ncc(C(=O)O)c(Nc3cccc(Br)c3)c2cc1OC | 18.2 µM | 53.8 µM | 34.22 µM | 35.7 µM |
